The results in this text go back to ChEMBL document CHEMBL6115022, “The Heterogeneous Kinetic Origins of the Binding Properties of Orthosteric Ligands at Heteromeric Nicotinic Acetylcholine Receptors” (J Med Chem, 2025).

Assay [1] deals with T1, Neuronal acetylcholine receptor; alpha4/beta2 (Homo sapiens, UniProt P17787+P43681). As to the kind of experiment: Displacement of [3H]epibatidine from human alpha4beta2 nAChR extracted from HEK293 cell membrane assessed as residence time incubated for 240 mins by liquid scintillation counting method. Type of assay: cell membranes. In general terms: Loss of bound radioactivity is the signal in a displacement assay; it reports binding, not function.
T1 sequence (P17787 whole entry): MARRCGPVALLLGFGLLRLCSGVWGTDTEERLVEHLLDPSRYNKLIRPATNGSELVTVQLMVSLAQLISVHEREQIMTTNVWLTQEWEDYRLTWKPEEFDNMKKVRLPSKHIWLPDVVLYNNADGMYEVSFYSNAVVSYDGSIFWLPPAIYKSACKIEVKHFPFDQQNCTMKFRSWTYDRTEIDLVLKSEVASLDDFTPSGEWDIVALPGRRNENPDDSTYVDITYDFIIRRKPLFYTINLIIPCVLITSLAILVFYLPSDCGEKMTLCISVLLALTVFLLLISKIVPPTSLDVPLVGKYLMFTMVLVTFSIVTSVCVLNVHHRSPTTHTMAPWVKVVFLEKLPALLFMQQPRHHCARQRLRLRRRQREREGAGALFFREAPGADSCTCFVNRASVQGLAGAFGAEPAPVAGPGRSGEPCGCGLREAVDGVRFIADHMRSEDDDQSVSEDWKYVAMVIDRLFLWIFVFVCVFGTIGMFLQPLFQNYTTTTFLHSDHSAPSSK
T1 sequence (P43681 whole entry): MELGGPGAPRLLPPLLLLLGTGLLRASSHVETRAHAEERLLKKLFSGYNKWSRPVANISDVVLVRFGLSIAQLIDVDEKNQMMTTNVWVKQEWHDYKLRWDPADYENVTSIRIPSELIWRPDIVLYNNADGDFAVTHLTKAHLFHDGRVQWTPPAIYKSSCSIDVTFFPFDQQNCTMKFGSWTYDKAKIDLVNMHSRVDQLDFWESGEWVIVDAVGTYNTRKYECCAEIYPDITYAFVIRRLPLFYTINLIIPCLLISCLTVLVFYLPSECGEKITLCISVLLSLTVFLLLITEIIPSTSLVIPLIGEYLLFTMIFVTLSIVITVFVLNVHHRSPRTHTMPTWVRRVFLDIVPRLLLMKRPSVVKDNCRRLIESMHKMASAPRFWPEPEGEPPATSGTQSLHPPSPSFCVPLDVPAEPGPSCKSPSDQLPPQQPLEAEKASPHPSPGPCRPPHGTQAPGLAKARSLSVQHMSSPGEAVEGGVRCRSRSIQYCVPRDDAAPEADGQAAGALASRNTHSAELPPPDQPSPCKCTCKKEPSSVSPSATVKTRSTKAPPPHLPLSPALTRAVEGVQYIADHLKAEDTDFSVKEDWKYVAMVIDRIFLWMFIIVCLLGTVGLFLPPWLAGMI

The target in assay [2] is T1, Neuronal acetylcholine receptor; alpha4/beta2. Description: Displacement of [3H]epibatidine from human alpha4beta2 nAChR extracted from HEK293 cell membrane assessed as dissociation binding constant (Koff) incubated for 240 mins by liquid scintillation counting method. Type of assay: cell membranes.
Assay [3] shares this target. Description: Displacement of [3H]epibatidine from human alpha4beta2 nAChR extracted from HEK293 cell membrane assessed as association binding constant (Kon) incubated for 240 mins by liquid scintillation counting method. The format is cell membranes.
Assay [4] has the same target. As to the kind of experiment: Displacement of [3H]epibatidine from human alpha4beta2 nAChR extracted from HEK293 cell membrane assessed as fold increase in […] binding constant (Koff) incubated for 240 mins by liquid scintillation counting method relative to (+)-DHbetaE. Type of assay: cell membranes. As to conditions: filed as antagonist.
Assay [5] shares this target. Description: Displacement of [3H]epibatidine from human alpha4beta2 nAChR extracted from HEK293 cell membrane assessed as fold increase in association binding constant (Kon) incubated for 240 mins by liquid scintillation counting method relative to (+)-DHbetaE. Type of assay: cell membranes. The note with it: filed as antagonist.
Assay [6] shares this target. Description: Displacement of [3H]epibatidine from human alpha4beta2 nAChR extracted from HEK293 cell membrane assessed as inhibition constant incubated for 240 mins by liquid scintillation counting method. Type of assay: cell membranes.
For assay [7] the target is unchanged. As to the kind of experiment: Displacement of [3H]epibatidine from human alpha4beta2 nAChR extracted from HEK293 cell membrane assessed as dissociation constant incubated for 240 mins by liquid scintillation counting method. The format is cell membranes.
The target of assay [8] is T2, Neuronal acetylcholine receptor; alpha3/beta4 (Rattus norvegicus, UniProt P04757+P12392). As to the kind of experiment: Displacement of [3H]epibatidine from rat alpha3beta4 nAChR extracted from HEK293 cell membrane assessed as dissociation constant incubated for 60 to 120 mins by liquid scintillation counting method. Type of assay: cell membranes.
T2 sequence (P04757 whole entry): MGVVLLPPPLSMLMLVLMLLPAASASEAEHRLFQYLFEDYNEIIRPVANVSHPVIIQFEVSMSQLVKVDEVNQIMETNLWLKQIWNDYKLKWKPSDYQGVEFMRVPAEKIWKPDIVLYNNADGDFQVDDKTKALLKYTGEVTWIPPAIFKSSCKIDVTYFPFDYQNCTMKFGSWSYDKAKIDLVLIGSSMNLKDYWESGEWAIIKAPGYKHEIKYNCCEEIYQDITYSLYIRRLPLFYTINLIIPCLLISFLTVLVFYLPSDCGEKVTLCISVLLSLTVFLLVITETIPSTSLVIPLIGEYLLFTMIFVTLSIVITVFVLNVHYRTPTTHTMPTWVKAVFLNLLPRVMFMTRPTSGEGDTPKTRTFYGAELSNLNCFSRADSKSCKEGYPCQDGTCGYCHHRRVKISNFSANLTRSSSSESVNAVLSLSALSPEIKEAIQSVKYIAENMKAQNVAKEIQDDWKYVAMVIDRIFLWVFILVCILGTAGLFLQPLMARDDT
T2 sequence (P12392 whole entry): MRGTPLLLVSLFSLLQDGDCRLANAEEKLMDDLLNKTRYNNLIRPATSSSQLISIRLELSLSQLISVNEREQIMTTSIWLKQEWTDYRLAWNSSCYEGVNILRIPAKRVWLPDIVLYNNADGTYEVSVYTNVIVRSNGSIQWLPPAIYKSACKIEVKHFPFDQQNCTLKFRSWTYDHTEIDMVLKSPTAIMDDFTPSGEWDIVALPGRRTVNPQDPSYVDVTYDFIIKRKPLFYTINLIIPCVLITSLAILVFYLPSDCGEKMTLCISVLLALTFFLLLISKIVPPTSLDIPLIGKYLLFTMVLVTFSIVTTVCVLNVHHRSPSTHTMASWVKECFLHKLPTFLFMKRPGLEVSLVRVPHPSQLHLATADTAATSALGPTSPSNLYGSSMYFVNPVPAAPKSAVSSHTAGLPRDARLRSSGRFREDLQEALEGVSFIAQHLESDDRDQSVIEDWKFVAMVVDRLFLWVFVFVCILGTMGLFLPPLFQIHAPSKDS
Assay [9] addresses T2, Neuronal acetylcholine receptor; alpha3/beta4. Description: Displacement of [3H]epibatidine from rat alpha3beta4 nAChR extracted from HEK293 cell membrane assessed as inhibition constant incubated for 60 to 120 mins by liquid scintillation counting method. The format is cell membranes.
Assay [10] can be described thus: Selectivity index, ratio of Ki for displacement of [3H]epibatidine from rat alpha3beta4 nAChR extracted from HEK293 cell membrane to Ki for displacement of [3H]epibatidine from human alpha4beta2 nAChR extracted from HEK293 cell membrane.
Assay [11] concerns the target T3, Neuronal acetylcholine receptor; alpha3/beta4 (Rattus norvegicus) (UniProt P04757+P12392). Description: Displacement of [3H]epibatidine from rat alpha3beta4 nAChR extracted from HEK293 cell membrane assessed as residence time incubated for 60 to 120 mins by liquid scintillation counting method. The format is cell membranes. As to conditions: filed as agonist, time lower 60.0 min, time upper […].

Assay [12] has as its target T3, Neuronal acetylcholine receptor; alpha3/beta4 (Rattus norvegicus). Description: Displacement of [3H]epibatidine from rat alpha3beta4 nAChR extracted from HEK293 cell membrane assessed as dissociation binding constant (Koff) incubated for 60 to 120 mins by liquid scintillation counting method. As to conditions: filed as agonist, time lower 60.0 min, time upper […]. The format is cell membranes.

The target is the same in assay [13]. As to the kind of experiment: Displacement of [3H]epibatidine from rat alpha3beta4 nAChR extracted from HEK293 cell membrane assessed as association binding constant (Kon) incubated for 60 to 120 mins by liquid scintillation counting method. Type of assay: cell membranes. As to conditions: filed as agonist, time lower 60.0 min, time upper […].
Assay [14] in a line: Selectivity index, ratio of K(on) for displacement of [3H]epibatidine from human alpha4beta2 nAChR extracted from HEK293 cell membrane to K(on) for displacement of [3H]epibatidine from rat alpha3beta4 nAChR extracted from HEK293 cell membrane.
The nature of assay [15]: Selectivity index, ratio of K(off) for displacement of [3H]epibatidine from human alpha4beta2 nAChR extracted from HEK293 cell membrane to K(off) for displacement of [3H]epibatidine from rat alpha3beta4 nAChR extracted from HEK293 cell membrane.

Consider `CO[C@H]1CC=C2CCN3CCC4=C(CC(=O)OC4)[C@]23C1`, for which the TIME in assay [1] (filed as antagonist) is 1.87 h. The K was 0.01 min⁻¹ in [2] (filed as antagonist) and 0.3 10^-3/nM/min in assay [3] (filed as antagonist).

With `CO[C@H]1CC=C2CCN3CCc4ccc(O)cc4[C@]23C1`, the Ratio in [4] was determined as 13; in [5], 130. Further, the TIME in assay [1] (filed as antagonist) was 0.15 h. Moreover, the figures for the K in [2] (filed as antagonist) and in [3] (filed as antagonist) were 0.12 min⁻¹ and 750000 M⁻¹ s⁻¹, respectively. Also, in assay [6], the Ki (commonly the equilibrium dissociation constant of an inhibitor or competing ligand from its target) came out at 3.1 nM. Further, in [7], the Kd (as a rule, the free concentration of one partner at which half of the binding sites on the other are occupied at equilibrium, for simple one-to-one binding) stood at 2.9 nM.

With `CCOc1cncc(/C=C/CCNC)c1`, the Kd in assay [8] is 12000 nM; in [7] it was 1.7 nM. The TIME in [1] (filed as agonist) is 0.0417 h; in assay [11], 0.0283 h. Besides, the Ki in [9] is 25000 nM; in assay [6] it was 0.8 nM. The K was 0.57 min⁻¹ in assay [2] (filed as agonist), 4.83e+06 M⁻¹ s⁻¹ in assay [3] (filed as agonist), 0.77 min⁻¹ in assay [12] and 0.064 10^-3/nM/min in assay [13]. Also, the Ratio Ki in [10] turned out to be 7000.

Turning to `Clc1ccc(C2CC3CCC2N3)cn1` (racemic), the TIME in assay [1] (filed as agonist) stood at 1.4 h; in assay [11], 0.103 h. Further, the K amounted to 0.012 min⁻¹ in assay [2] (filed as agonist), 2.17e+07 M⁻¹ s⁻¹ in assay [3] (filed as agonist), 0.17 min⁻¹ in assay [12] and 2.17e+07 M⁻¹ s⁻¹ in [13].

Consider `Cc1ncccc1OC[C@@H]1CCCN1` [POZANICLINE], for which the Kd in assay [8] was determined as 17000 nM. Moreover, the results for the TIME in [1] (filed as agonist) and in assay [11] were 0.0783 h and 0.04 h, respectively. For the same compound, the Ki in assay [9] worked out at 10000 nM. For the same compound, the K in assay [2] (filed as agonist) is 0.23 min⁻¹; in assay [3] (filed as agonist), 517000 M⁻¹ s⁻¹; in [12] it was 0.44 min⁻¹; in assay [13], 0.03 10^-3/nM/min.

Regarding `O=c1cccc2n1C[C@@H]1CNC[C@H]2C1` [CYTISINICLINE], the Kd turned out to be 150 nM in assay [8] and 0.21 nM in assay [7]. Also, the figures for the TIME in assay [1] (filed as agonist) and in assay [11] were 0.367 h and 0.075 h, respectively. In addition, the values for the Ki in assay [9] and in assay [6] were 110 nM and 0.2 nM, respectively. The K in assay [2] (filed as agonist) was 0.05 min⁻¹; in [3] (filed as agonist), 4.33e+06 M⁻¹ s⁻¹; in [12] it was 0.24 min⁻¹; in assay [13], 33300 M⁻¹ s⁻¹. Further, in [10], the Ratio Ki stood at 150.

`OCCCCC#Cc1cncc(OC[C@@H]2CCN2)c1`: the results for the Kd in assay [8] and in assay [7] were 2200 nM and 0.006 nM, respectively. For the same compound, the TIME turned out to be 4.5 h in assay [1] (filed as agonist) and 0.0467 h in [11]. For the same compound, the Ratio in assay [14] amounted to 3000; in assay [15], 100. In addition, the Ki in assay [9] turned out to be 2200 nM; in assay [6] it was 0.017 nM. Besides, the K in assay [2] (filed as agonist) was 0.004 min⁻¹; in assay [3] (filed as agonist), 1.12e+07 M⁻¹ s⁻¹; in assay [12] it was 0.39 min⁻¹; in assay [13] it was 0.2 10^-3/nM/min. Also, in assay [10], the Ratio Ki came out at 7000.

As for `CN1CCC[C@H]1c1cccnc1`, the TIME in [1] (filed as agonist) and in assay [11] was 0.0683 h throughout. For the same compound, the K in assay [2] (filed as agonist) was 0.27 min⁻¹; in assay [3] (filed as agonist) it was 3.83e+06 M⁻¹ s⁻¹; in assay [12], 0.3 min⁻¹; in assay [13], 33300 M⁻¹ s⁻¹.

As to `C[N+](C)(C)CCOC(N)=O` [CARBAMOYLCHOLINE], the Kd is 1500 nM in [8] and 200 nM in assay [7]. For the same compound, the TIME in assay [1] (filed as agonist) was 0.09 h; in [11], 0.06 h. Further, the Ki in assay [9] was found to be 2000 nM; in [6] it was 56 nM. The K in [2] (filed as agonist) was 0.25 min⁻¹; in assay [3] (filed as agonist), 16700 M⁻¹ s⁻¹; in [12], 0.33 min⁻¹; in [13], 0.31 10^-3/nM/min. Further, the Ratio Ki in [10] stood at 8.
